Experimental data: US12024510B2, “Pyrazolopyridine-diamides, their use as insecticide and processes for preparing the same” (PI INDUSTRIES LTD., priority 2017, dated 2024)

Experiments:
Format in all cases: in vivo
Spodoptera litura = Spodoptera litura diet incorporation method; settings: third instar larvae, dead and moribund combined, 96 h after release
Summary of the method: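 Compound milled to <2 μm average particle size in surfactant, dispersed in water (500 ppm stock dispersion), then mixed into semi-synthetic diet at ~50° C. One starved third-instar larva per diet cell, 25° C, 70% RH; percent mortality (dead plus moribund) scored at 96 h.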

Helicoverpa armigera = Helicoverpa armigera diet incorporation method; settings: third instar larvae, dead and moribund combined, 96 h after release
Summary of the method: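 Third-instar larvae, starved, were placed singly on diet pieces containing test dispersion (bead-milled in surfactant, particles under 2 μm, 500 ppm stock then diluted). Trays kept at 25° C. and 70% RH; mortality counted at 96 h, moribund larvae counted with dead.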

Plutella xylostella = assay: whole plant or invertebrate; settings: foliar, cabbage leaf dip, second instar larvae, dead and moribund combined, 72 h after release
Summary of the method: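 Leaf-dip bioassay: second-instar larvae, singly, fed on cabbage leaves dipped 10 s in test dispersion (bead-milled, diluted with 0.01% Triton-X to test concentration) and dried 20 min. Held at 25 °C, 70% RH; % mortality counts dead and moribund at 72 h.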

Measured: mortality at 300 ppm

COc1cc(C(=O)Nc2c(C)cc3ccnn3c2C(=O)NC(C)C2CC2)n(-c2ncccc2Cl)n1 (stereo not drawn) [Compound 99, 6-(1-(3-chloropyridin-2-yl)-3-methoxy-1H-pyrazole-5-carboxamido)-N-(1-cyclopropylethyl)-5-methylpyrazolo[1,5-a]pyridine-7-carboxamide]
> 70%: all assays above

C#CCNC(=O)c1c(NC(=O)c2cc(C(F)(F)F)nn2-c2ncccc2Cl)c(C)cc2ccnn12 [Compound 108, 6-(1-(3-chloropyridin-2-yl)-3-(trifluoromethyl)-1H-pyrazole-5-carboxamido)-5-methyl-N-(prop-2-yn-1-yl)pyrazolo[1,5-a]pyridine-7-carboxamide]
> 70%: all assays above

Cc1cc2ccnn2c(C(=O)NCC(F)(F)F)c1NC(=O)c1cc(C(F)(F)F)nn1-c1ncccc1Cl [Compound 109, 6-(1-(3-chloropyridin-2-yl)-3-(trifluoromethyl)-1H-pyrazole-5-carboxamido)-5-methyl-N-(2,2,2-trifluoroethyl)pyrazolo[1,5-a]pyridine-7-carboxamide]
> 70%: all assays above

COc1cc(C(=O)Nc2c(Br)cc3ccnn3c2C(=O)NC(C)(C)C)n(-c2ncccc2Cl)n1 [Compound 119, 5-bromo-N-(tert-butyl)-6-(1-(3-chloropyridin-2-yl)-3-methoxy-1H-pyrazole-5-carboxamido)pyrazolo[1,5-a]pyridine-7-carboxamide]
> 70%: all assays above

Cc1cc2ccnn2c(C(=O)NC(C)C2CC2)c1NC(=O)c1cc(C(F)(F)F)nn1-c1ncccc1Cl (stereo not drawn) [Compound 126, 6-(1-(3-chloropyridin-2-yl)-3-(trifluoromethyl)-1H-pyrazole-5-carboxamido)-N-(1-cyclopropylethyl)-5-methylpyrazolo[1,5-a]pyridine-7-carboxamide]
> 70%: all assays above

COc1cc(C(=O)Nc2c(Cl)cc3ccnn3c2C(=O)NC2CC2)n(-c2ncccc2Cl)n1 [Compound 132, 5-chloro-6-(1-(3-chloropyridin-2-yl)-3-methoxy-1H-pyrazole-5-carboxamido)-N-cyclopropylpyrazolo[1,5-a]pyridine-7-carboxamide]
> 70%: all assays above

COc1cc(C(=O)Nc2c(Cl)cc3ccnn3c2C(=O)NC(C)C)n(-c2ncccc2Cl)n1 [Compound 133, 5-chloro-6-(1-(3-chloropyridin-2-yl)-3-methoxy-1H-pyrazole-5-carboxamido)-N-isopropylpyrazolo[1,5-a]pyridine-7-carboxamide]
> 70%: all assays above

CCNC(=O)c1c(NC(=O)c2cc(OC)nn2-c2ncccc2Cl)c(Cl)cc2ccnn12 [Compound 134, 5-chloro-6-(1-(3-chloropyridin-2-yl)-3-methoxy-1H-pyrazole-5-carboxamido)-N-ethylpyrazolo[1,5-a]pyridine-7-carboxamide]
> 70%: all assays above

CNC(=O)c1c(NC(=O)c2cc(OC)nn2-c2ncccc2Cl)c(Cl)cc2ccnn12 [Compound 135, 5-chloro-6-(1-(3-chloropyridin-2-yl)-3-methoxy-1H-pyrazole-5-carboxamido)-N-methylpyrazolo[1,5-a]pyridine-7-carboxamide]
> 70%: all assays above

COc1cc(C(=O)Nc2c(Cl)cc3ccnn3c2C(=O)NCC(F)(F)F)n(-c2ncccc2Cl)n1 [Compound 137, 5-chloro-6-(1-(3-chloropyridin-2-yl)-3-methoxy-1H-pyrazole-5-carboxamido)-N-(2,2,2-trifluoroethyl)pyrazolo[1,5-a]pyridine-7-carboxamide]
> 70%: all assays above
